Numbered stars: 1 amine (or outer) side, 2 acyl side, 3 side chain; on linkers, the order of the positions; unused ones are H or OH. Square brackets hold non-standard residues; d marks the D form. Peptide text beside a SMILES is read from it. Gly(N(CH2)2(3-indolyl)) = O=C(O)CNCCc1c[nH]c2ccccc12; Nspe = C[C@H](NCC(=O)O)c1ccccc1; X1 = O=C(CN(CCCCO)[*:1])[*:2]; Nlys = NCCCCNCC(=O)O
Columns and labels:
[1] = Analytical reversed-phase HPLC elution (hydrophobicity); type: physicochemical; settings: Table S1; analytical RP-HPLC, SunFire C18, water/ACN + 0.1% TFA, 5 to 100% B linear over 30 min, 1 mL/min, UV 220 nm; approximate comparison of hydrophobicity
Protocol: 7. HPLC chromatogram, retention time (tR), and LC-MS data
HPLC analysis of peptoids was conducted using a Waters HPLC system equipped with a Waters 2489 UV/Visible Detector, 1525 Binary HPLC Pump, 2707 Autosampler, 5CH column oven, and a C18 column (SunFire C18, 4.6 × 250 mm, 5 μm; Waters Corp., Milford, MA, USA). The mobile phases were deionized water (A, with + 0.1% TFA) and acetonitrile (ACN; B, with + 0.1% TFA). Before sample injection, the column was conditioned with 5% B for 10 min. Then, the mobile phase was maintained at 5% B for 2 min, followed by increasing B to 100% using a linear gradient over 30 min. At this point, 100% B was maintained for 5 additional min. The flow rate of the mobile phase was 1 mL/min. The sample was detected by measuring absorbance at 220 nm. […]

rat erythrocytes = test: Hemolysis assay; type: cell-based; settings: for HC10 / HC50: pH 7.4
Protocol: The hemolysis assay was performed using rat erythrocytes in phosphate‐buffered saline (PBS), as reported by Mendes et al.^[ [45] ^] Animal studies were approved by the Laboratory Animal Resource Center of Gwangju Institute of Science and Technology. Blood was collected from a 13‐week‐old male Sprague‐Dawley rat in tubes containing 158 USP units of sodium heparin to prevent coagulation and centrifuged at 1000 rpm for 10 min at 4 °C. Plasma was removed carefully and erythrocyte pellets were washed three times with PBS (35 mM phosphate, pH 7.4, 150 mM NaCl). Next, 150 µL of a 10% erythrocyte suspension was mixed with 50 µL of serially diluted peptoids (0–100 µM) in a 96‐well black polypropylene plates (Greiner, Kremsmünster, Austria). Untreated erythrocytes and cells lysed by the addition of 1% Triton X‐100 were used as negative and positive controls, respectively, with the 1% Triton X‐100‐treated wells being accepted to represent 100% hemolysis. The reaction mixture was incubated at 37 °C for 60 min, and the plates were centrifuged at 1000 rpm for 15 min. Aliquots (150 µL) of the supernatant were transferred to fresh 96‐well plates, and the absorbance of each well was measured at 540 nm using a microplate reader. Hemolysis induced by peptoids was calculated as the percentage value of Triton X‐100 lysed cells. The percentage of hemolysis by the extracts was calculated according to the following formula: % hemolysis = [(Abs 540 nm in the peptoid solution – Abs 540 nm in PBS) / (Abs 540 nm in 1% Triton X‐100 – Abs 540 nm in PBS)] × 100. HC10 and HC50 were defined as the peptoid concentrations that caused 10% and 50% hemolysis in rat erythrocytes, respectively. H max indicates the percentage of hemolysis observed at the maximum peptoid concentration, 100 µM throughout this study.

Structure (SMILES) | HPLC elution [1] [% MeCN] | Hmax (100 µM) (rat erythrocytes) [%] | HC10 (rat erythrocytes) [µM] | HC50 (rat erythrocytes) [µM]
C[C@H](NCC(=O)N(CCCCN)CC(=O)N(CC(=O)N(CC(=O)N(CCCCN)CC(=O)N(CCCCN)CC(=O)N(CC(=O)N(CCCCN)CC(=O)N(CC(=O)N(CC(=O)N(CCCCN)CC(=O)N(CC(N)=O)[C@@H](C)c1ccccc1)[C@@H](C)c1ccccc1)[C@@H](C)c1ccccc1)[C@@H](C)c1ccccc1)[C@@H](C)c1ccccc1)[C@@H](C)c1ccccc1)c1ccccc1 [peptoid 55] (H-[Nspe][Nlys][Nspe][Nspe][Nlys][Nlys][Nspe][Nlys][Nspe][Nspe][Nlys][Nspe]-NH2) | 47.2 |  |  | 
C[C@H](NCC(=O)N(CCCCN)CC(=O)N(CC(=O)N(CC(=O)N(CCCCN)CC(=O)N(CC(=O)N(CC(=O)N(CCCCN)CC(=O)N(CC(=O)N(CC(=O)N(CCCCN)CC(=O)N(CC(N)=O)[C@@H](C)c1ccccc1)[C@@H](C)c1ccccc1)[C@@H](C)c1ccccc1)[C@@H](C)c1ccccc1)[C@@H](C)c1ccccc1)[C@@H](C)c1ccccc1)[C@@H](C)c1ccccc1)c1ccccc1 [peptoid 48] (H-[Nspe][Nlys][Nspe][Nspe][Nlys][Nspe][Nspe][Nlys][Nspe][Nspe][Nlys][Nspe]-NH2) | 53.4 | 79.9±3.6 | 25.7 | 48.4
C[C@@H](c1ccccc1)N(CC(N)=O)C(=O)CN(C(=O)CN(CCCCN)C(=O)CN(C(=O)CN(C(=O)CN(CCCCN)C(=O)CN(CCc1c[nH]c2ccccc12)C(=O)CN(CCCCN)C(=O)CN(CCCCN)C(=O)CN(C(=O)CN(C(=O)CNCCCCN)[C@@H](C)c1ccccc1)[C@@H](C)c1ccccc1)[C@@H](C)c1ccccc1)[C@@H](C)c1ccccc1)[C@@H](C)c1ccccc1 [peptoid 26] | 49.5 | 0.7±0.1 | > 100 | > 100
C[C@@H](c1ccccc1)N(CC(N)=O)C(=O)CN(C(=O)CN(CCCCN)C(=O)CN(C(=O)CN(C(=O)CN(CCCCN)C(=O)CN(C(=O)CN(C(=O)CN(CCCCN)C(=O)CN(C(=O)CN(C(=O)CN(CCCCN)C(=O)CN(Cc1ccccc1)C(=O)CNCc1ccccc1)[C@@H](C)c1ccccc1)[C@@H](C)c1ccccc1)[C@@H](C)c1ccccc1)[C@@H](C)c1ccccc1)[C@@H](C)c1ccccc1)[C@@H](C)c1ccccc1)[C@@H](C)c1ccccc1 [peptoid 43] | 56.8 | 105.6±3.8 | < 3.1 | 6.4
C[C@@H](c1ccccc1)N(CC(N)=O)C(=O)CN(CCCCN)C(=O)CN(C(=O)CN(C(=O)CN(CCCCN)C(=O)CN(C(=O)CN(C(=O)CN(CCCCN)C(=O)CN(C(=O)CN(CCCCN)C(=O)CNCCCCN)[C@@H](C)c1ccccc1)[C@@H](C)c1ccccc1)[C@@H](C)c1ccccc1)[C@@H](C)c1ccccc1)[C@@H](C)c1ccccc1 [peptoid 52] | 46.9 |  |  | 
C[C@H](NCC(=O)N(CCCCN)CC(=O)N(CC(=O)N(CC(=O)N(CCCCN)CC(=O)N(CC(=O)N(CC(=O)N(CCCCN)CC(=O)N(CCCCN)CC(=O)N(CC(=O)N(CCCCN)CC(=O)N(CC(N)=O)[C@@H](C)c1ccccc1)[C@@H](C)c1ccccc1)[C@@H](C)c1ccccc1)[C@@H](C)c1ccccc1)[C@@H](C)c1ccccc1)[C@@H](C)c1ccccc1)c1ccccc1 [peptoid 54] (H-[Nspe][Nlys][Nspe][Nspe][Nlys][Nspe][Nspe][Nlys][Nlys][Nspe][Nlys][Nspe]-NH2) | 48.1 |  |  | 
C[C@@H](c1ccccc1)N(CC(N)=O)C(=O)CN(CCCCN)C(=O)CN(C(=O)CN(C(=O)CN(CCCCN)C(=O)CN(C(=O)CN(CCCCN)C(=O)CN(CCCCN)C(=O)CN(C(=O)CN(C(=O)CNCCCCN)[C@@H](C)c1ccccc1)[C@@H](C)c1ccccc1)[C@@H](C)c1ccccc1)[C@@H](C)c1ccccc1)[C@@H](C)c1ccccc1 [peptoid 51] | 45.3 |  |  | 
C[C@@H](c1ccccc1)N(CC(N)=O)C(=O)CN(CCCCN)C(=O)CN(C(=O)CN(CCCCN)C(=O)CN(CCCCN)C(=O)CN(C(=O)CN(C(=O)CN(CCCCN)C(=O)CN(C(=O)CN(C(=O)CNCCCCN)[C@@H](C)c1ccccc1)[C@@H](C)c1ccccc1)[C@@H](C)c1ccccc1)[C@@H](C)c1ccccc1)[C@@H](C)c1ccccc1 [peptoid 50] | 46.1 |  |  | 
C[C@H](NCC(=O)N(CCCCN)CC(=O)N(CC(=O)N(CC(=O)N(CCCCN)CC(=O)N(CC(=O)N(CC(=O)N(CCCCN)CC(=O)N(CC(=O)N(CC(=O)N(CCCCN)CC(=O)N(CCCCN)CC(N)=O)[C@@H](C)c1ccccc1)[C@@H](C)c1ccccc1)[C@@H](C)c1ccccc1)[C@@H](C)c1ccccc1)[C@@H](C)c1ccccc1)[C@@H](C)c1ccccc1)c1ccccc1 [peptoid 53] (H-[Nspe][Nlys][Nspe][Nspe][Nlys][Nspe][Nspe][Nlys][Nspe][Nspe][Nlys][Nlys]-NH2) | 48.5 |  |  | 

Now from value to compound, other results behind:

HPLC elution [1] [% MeCN] | Structure (SMILES) | Hmax (100 µM) (rat erythrocytes) [%] | HC10 (rat erythrocytes) [µM] | HC50 (rat erythrocytes) [µM]
47.8 | C[C@@H](c1ccccc1)N(CC(N)=O)C(=O)CN(CCCCN)C(=O)CN(C(=O)CN(C(=O)CN(CCCCN)C(=O)CN(C(=O)CN(CCCCN)C(=O)CN(CCCCN)C(=O)CN(C(=O)CN(C(=O)CN(CCCCN)C(=O)CNCCc1c[nH]c2ccccc12)[C@@H](C)c1ccccc1)[C@@H](C)c1ccccc1)[C@@H](C)c1ccccc1)[C@@H](C)c1ccccc1)[C@@H](C)c1ccccc1 [peptoid 59] |  |  | 
64.7 | C[C@@H](c1ccccc1)N(CC(=O)N(CCCCO)CC(=O)N(CCc1c[nH]c2ccccc12)CC(=O)N(CCc1c[nH]c2ccccc12)CC(N)=O)C(=O)CN(CCCCO)C(=O)CN(CCCCO)C(=O)CN(C(=O)CN(C(=O)CN(CCCCO)C(=O)CN(C(=O)CN(C(=O)CNCCCCO)[C@@H](C)c1ccccc1)[C@@H](C)c1ccccc1)[C@@H](C)c1ccccc1)[C@@H](C)c1ccccc1 [peptoid 66] |  |  | 
48.0 | C[C@H](NCC(=O)N(CCCCN)CC(=O)N(CCCCN)CC(=O)N(CC(=O)N(CCCCN)CC(=O)N(CC(=O)N(CC(=O)N(CCCCN)CC(=O)N(CC(=O)N(CC(=O)N(CCCCN)CC(=O)N(CC(N)=O)[C@@H](C)c1ccccc1)[C@@H](C)c1ccccc1)[C@@H](C)c1ccccc1)[C@@H](C)c1ccccc1)[C@@H](C)c1ccccc1)[C@@H](C)c1ccccc1)c1ccccc1 [peptoid 56] (H-[Nspe][Nlys][Nlys][Nspe][Nlys][Nspe][Nspe][Nlys][Nspe][Nspe][Nlys][Nspe]-NH2) |  |  | 
66.7 | NC(=O)CN(CCc1c[nH]c2ccccc12)C(=O)CN(CCc1c[nH]c2ccccc12)C(=O)CN(CCCCO)C(=O)CN(CCc1c[nH]c2ccccc12)C(=O)CN(CCc1c[nH]c2ccccc12)C(=O)CN(CCCCO)C(=O)CN(CCc1c[nH]c2ccccc12)C(=O)CN(CCc1c[nH]c2ccccc12)C(=O)CN(CCCCO)C(=O)CN(CCc1c[nH]c2ccccc12)C(=O)CN(CCc1c[nH]c2ccccc12)C(=O)CNCCCCO [peptoid 65] (H-[X1][Gly(N(CH2)2(3-indolyl))][Gly(N(CH2)2(3-indolyl))][X1][Gly(N(CH2)2(3-indolyl))][Gly(N(CH2)2(3-indolyl))][X1][Gly(N(CH2)2(3-indolyl))][Gly(N(CH2)2(3-indolyl))][X1][Gly(N(CH2)2(3-indolyl))][Gly(N(CH2)2(3-indolyl))]-NH2) |  |  | 
48.6 | C[C@@H](c1ccccc1)N(CC(N)=O)C(=O)CN(CCCCN)C(=O)CN(C(=O)CN(C(=O)CN(CCCCN)C(=O)CN(C(=O)CN(C(=O)CN(CCCCN)C(=O)CN(C(=O)CN(CCCCN)C(=O)CN(CCCCN)C(=O)CNCCc1c[nH]c2ccccc12)[C@@H](C)c1ccccc1)[C@@H](C)c1ccccc1)[C@@H](C)c1ccccc1)[C@@H](C)c1ccccc1)[C@@H](C)c1ccccc1 [peptoid 60] |  |  | 
48.7 | C[C@@H](c1ccccc1)N(CC(N)=O)C(=O)CN(CCCCN)C(=O)CN(C(=O)CN(CCCCN)C(=O)CN(CCCCN)C(=O)CN(C(=O)CN(C(=O)CN(CCCCN)C(=O)CN(C(=O)CN(C(=O)CN(CCCCN)C(=O)CNCCc1c[nH]c2ccccc12)[C@@H](C)c1ccccc1)[C@@H](C)c1ccccc1)[C@@H](C)c1ccccc1)[C@@H](C)c1ccccc1)[C@@H](C)c1ccccc1 [peptoid 58] |  |  | 
49.1 | C[C@@H](c1ccccc1)N(CC(=O)N(CCCCN)CC(=O)N(CC(=O)N(CC(=O)N(CCCCN)CC(=O)N(CC(=O)N(CC(=O)N(CCCCN)CC(=O)N(CCCCN)CC(N)=O)[C@@H](C)c1ccccc1)[C@@H](C)c1ccccc1)[C@@H](C)c1ccccc1)[C@@H](C)c1ccccc1)C(=O)CN(C(=O)CN(CCCCN)C(=O)CNCCc1c[nH]c2ccccc12)[C@@H](C)c1ccccc1 [peptoid 57] (H-[Gly(N(CH2)2(3-indolyl))][Nlys][Nspe][Nspe][Nlys][Nspe][Nspe][Nlys][Nspe][Nspe][Nlys][Nlys]-NH2) |  |  | 

Reference: PMC10460844, “Real‐Time Monitoring of Multitarget Antimicrobial Mechanisms of Peptoids Using Label‐Free Imaging with Optical Diffraction Tomography” (Advanced Science, 2023)
